Test [1] deals with LPS-stimulated macrophages. Briefly: TNF-alpha production by LPS-stimulated macrophages (ELISA). The format is cell-based, ICR mice. Conditions: astaxanthin alone, FIG. 3. The method, then:
(§1) 100 U/ml penicillin. […] streptomycin (Beit-Haemek, Israel).
Concentrations of TNF-alpha in cell culture supernatants were quantified by ELISA kits (Biolegend, SanDiego, Calif., USA).
(§2) The anti-inflammatory effect was detected by inhibition of NO production and of TNF alpha production by LPS-stimulated macrophages.

Test [2] relates to LPS-stimulated macrophages. Briefly: NO production by LPS-stimulated macrophages. The format is cell-based, ICR mice. Conditions: astaxanthin alone, FIG. 1. The method, then: as §1, §2
NO levels in supernatants of cell cultures were determined by assaying nitrite levels using Griess reagent and sodium nitrite as a standard.

Structures are written as SMILES.

On to `CC1=C(/C=C/C(C)=C/C=C/C(C)=C/C=C/C=C(C)/C=C/C=C(C)/C=C/C2=C(C)C(=O)[C@@H](O)CC2(C)C)C(C)(C)C[C@H](O)C1=O` [astaxanthin], for which, in test [1], the “inhibition of TNF alpha production” value is “in a dose dependent manner”. Also, the “inhibition of NO production” value in test [2] is on record as “in a dose dependent manner”.

Values taken from patent US10245239B2, “Astaxanthin anti-inflammatory synergistic combinations” (Lycored Ltd., priority 2013, dated 2019).
